From PubChem BioAssay AID1963834 (Molecular Pharmacology Branch, DTP, NCI, 2024)

Tested on: 873145-292-R-J1-PDC complex spheroid viability
Experiment: Anticancer human tumor 873145-292-R-J1-PDC patient-derived renal clear cell carcinoma cell line growth inhibition [POLQ]
Details: for IC50: curve of first compound; for viability, T/C: stronger effect = lower value
Summary of the method: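 Patient-derived tumour cells were co-cultured with HUVEC and mesenchymal stem cells as multicellular spheroids at 37 °C. They were treated with POLQ inhibitors (novobiocin, ART-558, RP6685) alone or combined with other agents. Top concentrations were at or near clinical Cmax (otherwise 10 microM; SN-38 at 1 microM), decreasing in half-log steps.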

[1] = second compound 0.0316 µM, first compound 0.0316 µM
[2] = second compound 0.0316 µM, first compound 0.1 µM
[3] = second compound 0.0316 µM, first compound 0.316 µM
[4] = second compound 0.0316 µM, first compound 1 µM
[5] = second compound 0.1 µM, first compound 0.0316 µM
[6] = second compound 0.1 µM, first compound 0.1 µM
[7] = second compound 0.1 µM, first compound 0.316 µM
[8] = second compound 0.1 µM, first compound 1 µM
[9] = second compound 0.316 µM, first compound 0.0316 µM
[10] = second compound 0.316 µM, first compound 0.1 µM
[11] = second compound 0.316 µM, first compound 0.316 µM
[12] = second compound 0.316 µM, first compound 1 µM
[13] = second compound 1 µM, first compound 0.0316 µM
[14] = second compound 1 µM, first compound 0.1 µM
[15] = second compound 1 µM, first compound 0.316 µM
[16] = second compound 1 µM, first compound 1 µM
[17] = second compound 3.16 µM, first compound 0.0316 µM
[18] = second compound 3.16 µM, first compound 0.1 µM
[19] = second compound 3.16 µM, first compound 0.316 µM
[20] = second compound 3.16 µM, first compound 1 µM
[21] = second compound 10 µM, first compound 0.0316 µM
[22] = second compound 10 µM, first compound 0.1 µM
[23] = second compound 10 µM, first compound 0.316 µM
[24] = second compound 10 µM, first compound 1 µM
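Note: spheroids exposed to compounds for 7 days before viability readout.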
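Throughout, for viability, T/C: luminescence signal used as surrogate for viable cell content; 100% = DMSO vehicle control viability.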

With `C=CCn1c(=O)c2cnc(Nc3ccc(N4CCN(C)CC4)cc3)nc2n1-c1cccc(C(C)(C)O)n1` + Nc1ccc(C#CCN(C(=O)Cc2ncc(C(F)(F)F)cc2C(F)(F)F)c2ccc(F)cc2)nn1 the IC50 (second compound 0.0316 µM) was > 1 µM, the IC50 (second compound 0.1 µM) was > 1 µM and the IC50 (second compound 0.316 µM) was > 1 µM. For the same compound, the IC50 (second compound 1 µM) was > 1 µM, the IC50 (second compound 3.16 µM) was > 1 µM and the IC50 (second compound 10 µM) was > 1 µM. It also gave a viability, T/C (second compound 0.0316 µM, first compound 0.00316 µM) of 93.8%, a viability, T/C (second compound 0.0316 µM, first compound 0.01 µM) of 110% and a viability, T/C [1] of 92.7%. For the same compound, the viability, T/C [2] was 86.6%, the viability, T/C [3] was 78.5% and the viability, T/C [4] was 77.3%. It also gave a viability, T/C (second compound 0.1 µM, first compound 0.00316 µM) of 106%, a viability, T/C (second compound 0.1 µM, first compound 0.01 µM) of 105% and a viability, T/C [5] of 86.4%. It also gave a viability, T/C [6] of 100%, a viability, T/C [7] of 89.2% and a viability, T/C [8] of 74.1%. It also gave a viability, T/C (second compound 0.316 µM, first compound 0.00316 µM) of 91.8%, a viability, T/C (second compound 0.316 µM, first compound 0.01 µM) of 99.1% and a viability, T/C [9] of 79.5%. The viability, T/C [10] was 86.4%, the viability, T/C [11] was 87.8% and the viability, T/C [12] was 72.9%. The viability, T/C (second compound 1 µM, first compound 0.00316 µM) was 93.5%, the viability, T/C (second compound 1 µM, first compound 0.01 µM) was 95.3% and the viability, T/C [13] was 94.1%. It also gave a viability, T/C [14] of 88.5%, a viability, T/C [15] of 90.6% and a viability, T/C [16] of 69.3%. The viability, T/C (second compound 3.16 µM, first compound 0.00316 µM) was 105%, the viability, T/C (second compound 3.16 µM, first compound 0.01 µM) was 103% and the viability, T/C [17] was 88.4%. For the same compound, the viability, T/C [18] was 90.2%, the viability, T/C [19] was 81.4% and the viability, T/C [20] was 79.8%. For the same compound, the viability, T/C (second compound 10 µM, first compound 0.00316 µM) was 110%, the viability, T/C (second compound 10 µM, first compound 0.01 µM) was 106% and the viability, T/C [21] was 108%. The viability, T/C [22] was 101%, the viability, T/C [23] was 77.9% and the viability, T/C [24] was 77.8%.

With `COc1cc2cc(C(=O)CCC(=O)O)sc2cc1OC` + Nc1ccc(C#CCN(C(=O)Cc2ncc(C(F)(F)F)cc2C(F)(F)F)c2ccc(F)cc2)nn1 the IC50 (second compound 0.0316 µM) was > 10 µM, the IC50 (second compound 0.1 µM) was > 10 µM and the IC50 (second compound 0.316 µM) was > 10 µM. The IC50 (second compound 1 µM) was > 10 µM, the IC50 (second compound 3.16 µM) was > 10 µM and the IC50 (second compound 10 µM) was > 10 µM. For the same compound, the viability, T/C [1] was 94.6%, the viability, T/C [2] was 116% and the viability, T/C [3] was 95.8%. For the same compound, the viability, T/C [4] was 97.8%, the viability, T/C (second compound 0.0316 µM, first compound 3.16 µM) was 104% and the viability, T/C (second compound 0.0316 µM, first compound 10 µM) was 102%. For the same compound, the viability, T/C [5] was 106%, the viability, T/C [6] was 115% and the viability, T/C [7] was 92.3%. The viability, T/C [8] was 107%, the viability, T/C (second compound 0.1 µM, first compound 3.16 µM) was 121% and the viability, T/C (second compound 0.1 µM, first compound 10 µM) was 91.5%. The viability, T/C [9] was 104%, the viability, T/C [10] was 116% and the viability, T/C [11] was 96.8%. The viability, T/C [12] was 99.3%, the viability, T/C (second compound 0.316 µM, first compound 3.16 µM) was 97.2% and the viability, T/C (second compound 0.316 µM, first compound 10 µM) was 89.8%. For the same compound, the viability, T/C [13] was 104%, the viability, T/C [14] was 105% and the viability, T/C [15] was 112%. For the same compound, the viability, T/C [16] was 105%, the viability, T/C (second compound 1 µM, first compound 3.16 µM) was 104% and the viability, T/C (second compound 1 µM, first compound 10 µM) was 92.5%. It also gave a viability, T/C [17] of 112%, a viability, T/C [18] of 104% and a viability, T/C [19] of 91.8%. For the same compound, the viability, T/C [20] was 106%, the viability, T/C (second compound 3.16 µM, first compound 3.16 µM) was 103% and the viability, T/C (second compound 3.16 µM, first compound 10 µM) was 103%. The viability, T/C [21] was 113%, the viability, T/C [22] was 105% and the viability, T/C [23] was 119%. It also gave a viability, T/C [24] of 110%, a viability, T/C (second compound 10 µM, first compound 3.16 µM) of 103% and a viability, T/C (second compound 10 µM, first compound 10 µM) of 105%.
